This note sets out measurements from ChEMBL document CHEMBL1201862, “PubChem BioAssay data set” (2004).

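Step 1: Grow cells in 96-well plates. Step 2: Expose to compound for 48 hours at 5 concentrations. Step 3: Interpolate endpoints linearly; if unreached, use highest concentration. GI50 = concentration required for 50% inhibition of growth.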 Activity calls are given as the source filed them. No stated cut-off is given here; in the data, active = GI50 up to about 1.1 µM and inactive = higher. A value given as a limit tells only on which side of the number the result lay.

Among the test systems are CAKI-1; NCI-H23; DU-145; MCF7; Hs-578T; RPMI-8226; MDA-MB-435; IGROV-1; SK-MEL-2; SN12C; MDA-MB-231; OVCAR-5; SR; HOP-62; MDA-N; BT-549; NCI/ADR-RES.
Test in all cases: growth of human tumour cells (NCI), 48 h

For the compound `C/C1=C\C=C(\C(C)C)CC/C(C(=O)O)=C\CC/C(C)=C/CC1` [NEOCROTOCEMBRANEIC ACID], the GI50 in the experiment with CAKI-1 was 31.7 µM (inactive); with NCI-H23 it was 20.7 µM (inactive); in the experiment on DU-145, 33.1 µM (inactive); in the experiment with MCF7, 16.9 µM (inactive); in the experiment with Hs-578T it was 43.6 µM (inactive); in the experiment on RPMI-8226 it was 19.3 µM (inactive). Further, the GI50 in the experiment on MDA-MB-435 was 23.6 µM (inactive); in the experiment on IGROV-1 it was 42 µM (inactive); in the experiment with SK-MEL-2, 18.1 µM (inactive); with SN12C, 21.2 µM (inactive); in the experiment on MDA-MB-231, 20.7 µM (inactive); with OVCAR-5 it was 29.3 µM (inactive). Moreover, the GI50 with SR is 19.5 µM (inactive); in the experiment on HOP-62, 22.8 µM (inactive); with MDA-N it was 28.8 µM (inactive); in the experiment on BT-549, 27.5 µM (inactive); in the experiment on NCI/ADR-RES, 30.5 µM (inactive).
For the compound `COc1ccc(C(C2=C(O)COC2=O)c2cc3c(cc2O)OCO3)cc1OC` (configuration not stated), the GI50 in the experiment with CAKI-1, with DU-145, in the experiment with MCF7, in the experiment with Hs-578T, in the experiment on RPMI-8226 and in the experiment with MDA-MB-435 was > 100 µM (inactive) throughout. For the same compound, the GI50 in the experiment with IGROV-1, with SK-MEL-2, in the experiment with SN12C, in the experiment with MDA-MB-231, with OVCAR-5 and in the experiment with SR was > 100 µM (inactive) each time. The GI50 in the experiment on HOP-62, in the experiment with MDA-N, with BT-549 and in the experiment on NCI/ADR-RES was > 100 µM (inactive) throughout.
Take `Cc1cc2nc3ccccc3n2c2nc(N)ccc12`: the GI50 is 20.9 µM (inactive) with CAKI-1; 43 µM (inactive) in the experiment with NCI-H23; 52.6 µM (inactive) with DU-145; 44 µM (inactive) in the experiment with MCF7; 35.3 µM (inactive) with Hs-578T; 14.8 µM (inactive) in the experiment with RPMI-8226. The GI50 was 49.5 µM (inactive) in the experiment with MDA-MB-435; 28.1 µM (inactive) with IGROV-1; 65.6 µM (inactive) in the experiment on SK-MEL-2; 51.2 µM (inactive) with SN12C; 58.2 µM (inactive) in the experiment on MDA-MB-231; 61.2 µM (inactive) in the experiment with OVCAR-5. The GI50 was 13.5 µM (inactive) with SR; 26.3 µM (inactive) in the experiment on HOP-62; 49.4 µM (inactive) in the experiment on MDA-N; 68.9 µM (inactive) in the experiment on BT-549; 23.2 µM (inactive) in the experiment on NCI/ADR-RES.
In the case of `CC(C)C(=O)OCN(C)c1nc(N(C)COC(=O)C(C)C)nc(N(C)COC(=O)C(C)C)n1`, the GI50 was 34.5 µM (inactive) with CAKI-1; 20.7 µM (inactive) with NCI-H23; 37.5 µM (inactive) with DU-145; 35.6 µM (inactive) in the experiment on MCF7; 17.9 µM (inactive) in the experiment on Hs-578T; 22.8 µM (inactive) with RPMI-8226. The GI50 in the experiment with MDA-MB-435 is 17.8 µM (inactive); in the experiment with SK-MEL-2 it was 23.2 µM (inactive); with SN12C it was 28.4 µM (inactive); in the experiment with MDA-MB-231, 25.2 µM (inactive); with OVCAR-5 it was 27.7 µM (inactive); in the experiment on SR it was 22.8 µM (inactive). The GI50 was 33.2 µM (inactive) with HOP-62, 22.2 µM (inactive) with MDA-N, 20.8 µM (inactive) in the experiment on BT-549 and 34.8 µM (inactive) with NCI/ADR-RES.
Take `O=CN1CCN(c2ccc3ccc(O)nc3n2)CC1`: the GI50 in the experiment with CAKI-1, in the experiment on NCI-H23, in the experiment with DU-145, with MCF7, in the experiment with Hs-578T and with RPMI-8226 was > 100 µM (inactive) in each case. Moreover, the GI50 in the experiment with MDA-MB-435, in the experiment on IGROV-1, in the experiment on SK-MEL-2, in the experiment on SN12C, in the experiment on MDA-MB-231 and in the experiment with OVCAR-5 was > 100 µM (inactive) each time. Further, the GI50 in the experiment with SR, with HOP-62, with MDA-N, with BT-549 and with NCI/ADR-RES was > 100 µM (inactive) in each case.
For `CCOC(=O)c1c(N2CCCC2)[nH]c(=O)c(C(c2cccs2)c2c(O)c(C(=O)OCC)c(N3CCCC3)[nH]c2=O)c1O`, the GI50 with CAKI-1 was > 100 µM (inactive); in the experiment with NCI-H23, > 100 µM (inactive); in the experiment with DU-145, > 100 µM (inactive); in the experiment with MCF7, > 100 µM (inactive); in the experiment on Hs-578T it was > 100 µM (inactive); in the experiment with RPMI-8226, 54.6 µM (inactive). In addition, the GI50 in the experiment with MDA-MB-435, in the experiment with SK-MEL-2, with SN12C, with MDA-MB-231, with OVCAR-5 and in the experiment with SR was > 100 µM (inactive) each time. Moreover, the GI50 with HOP-62, in the experiment with MDA-N, in the experiment on BT-549 and with NCI/ADR-RES was > 100 µM (inactive) throughout.
Turning to `C/C(=N\NC(=O)c1ccncc1)c1ccc2ccccc2c1O`, the GI50 is 2.25 µM (inactive) with CAKI-1; 3.82 µM (inactive) in the experiment with NCI-H23; 2.25 µM (inactive) with DU-145; 1.35 µM (inactive) with MCF7; 16.8 µM (inactive) in the experiment with Hs-578T; 4.33 µM (inactive) in the experiment with RPMI-8226. Also, the GI50 in the experiment on MDA-MB-435 was 8.99 µM (inactive); in the experiment on IGROV-1, 2.29 µM (inactive); in the experiment with SK-MEL-2, 7.69 µM (inactive); with SN12C it was 1.62 µM (inactive); in the experiment with MDA-MB-231 it was 5.08 µM (inactive); with OVCAR-5, 6.12 µM (inactive). The GI50 in the experiment with SR is 0.303 µM (active); in the experiment with HOP-62, 4.37 µM (inactive); with MDA-N it was 4.41 µM (inactive); with BT-549, 10.8 µM (inactive); with NCI/ADR-RES, 1.87 µM (inactive).
As to `COc1cc(C=O)cc(/C=N/c2ccc(Br)cc2)c1O`, the GI50 in the experiment on CAKI-1 is 2.93 µM (inactive); in the experiment with NCI-H23, 17.7 µM (inactive); in the experiment with DU-145, 11.3 µM (inactive); in the experiment on MCF7, 4.47 µM (inactive); in the experiment with Hs-578T, 1.8 µM (inactive); in the experiment on RPMI-8226, 3.33 µM (inactive). In addition, the GI50 was 1.05 µM (active) with MDA-MB-435; 40.3 µM (inactive) in the experiment with IGROV-1; 2.78 µM (inactive) with SK-MEL-2; 4.13 µM (inactive) in the experiment with SN12C; 4.44 µM (inactive) in the experiment with MDA-MB-231; 24.5 µM (inactive) with OVCAR-5. Besides, the GI50 was 2.68 µM (inactive) with SR; 11.7 µM (inactive) in the experiment with HOP-62; 3.72 µM (inactive) in the experiment on MDA-N; 6.25 µM (inactive) in the experiment with BT-549; 2.49 µM (inactive) in the experiment with NCI/ADR-RES.
In the case of `COc1cc(-c2cc(-c3ccccc3)nc(-c3c(OC)ccc4c(C)cc(=O)oc34)c2)cc(OC)c1OC`, the GI50 in the experiment on CAKI-1 is > 100 µM (inactive); with NCI-H23, > 100 µM (inactive); in the experiment on DU-145, > 100 µM (inactive); with MCF7, 74.1 µM (inactive); in the experiment with Hs-578T it was > 100 µM (inactive); with MDA-MB-435, > 100 µM (inactive). Also, the GI50 with IGROV-1, in the experiment on SK-MEL-2, in the experiment on SN12C, in the experiment with MDA-MB-231, with SR and in the experiment on HOP-62 was > 100 µM (inactive) throughout. For the same compound, the GI50 in the experiment with MDA-N, in the experiment with BT-549 and in the experiment with NCI/ADR-RES was > 100 µM (inactive) throughout.
Regarding `C=CCSc1nnc2cc(CN3CCCC3)c(-c3ccc(Cl)cc3)nn12`, the GI50 was 26.5 µM (inactive) with CAKI-1; 23.7 µM (inactive) in the experiment on NCI-H23; 20.3 µM (inactive) in the experiment with DU-145; 16.1 µM (inactive) with MCF7; 40.6 µM (inactive) with Hs-578T; 39.1 µM (inactive) with RPMI-8226. The GI50 was 20 µM (inactive) in the experiment on MDA-MB-435; 20.7 µM (inactive) in the experiment with IGROV-1; 19.2 µM (inactive) in the experiment with SK-MEL-2; 16.8 µM (inactive) with SN12C; 19.6 µM (inactive) with MDA-MB-231; 18.3 µM (inactive) with OVCAR-5. The GI50 with SR is 32.6 µM (inactive); in the experiment with HOP-62, 20.7 µM (inactive); in the experiment on MDA-N, 16.7 µM (inactive); with BT-549, 20.7 µM (inactive); in the experiment on NCI/ADR-RES, 23.3 µM (inactive).
As for `O=S(=O)(Nc1ccccc1)c1ccc(-c2c3nc(c(-c4ccc(S(=O)(=O)Nc5ccccc5)cc4)c4ccc([nH]4)c(-c4ccc(S(=O)(=O)Nc5ccccc5)cc4)c4nc(c(-c5ccc(S(=O)(=O)Nc6ccccc6)cc5)c5ccc2[nH]5)C=C4)C=C3)cc1`, the GI50 in the experiment with CAKI-1, in the experiment with NCI-H23, in the experiment with DU-145, in the experiment on MCF7, with Hs-578T and in the experiment on MDA-MB-435 was > 31.6 µM (inactive) throughout. The GI50 with IGROV-1 is > 93.3 µM (inactive); in the experiment on SK-MEL-2 it was > 31.6 µM (inactive); in the experiment with SN12C, > 31.6 µM (inactive); with MDA-MB-231, 24 µM (inactive); in the experiment with OVCAR-5, > 31.6 µM (inactive); in the experiment with SR, > 31.6 µM (inactive). In addition, the GI50 is > 10 µM (inactive) in the experiment with HOP-62, > 31.6 µM (inactive) in the experiment with MDA-N, > 31.6 µM (inactive) in the experiment with BT-549 and > 31.6 µM (inactive) in the experiment on NCI/ADR-RES.
Regarding `O=c1c2c3c(sc2nc2n1N=C(c1ccc([N+](=O)[O-])cc1)CS2)CCCC3`, the GI50 in the experiment on CAKI-1, in the experiment with NCI-H23, in the experiment on DU-145, in the experiment with MCF7, in the experiment with Hs-578T and in the experiment with RPMI-8226 was > 100 µM (inactive) each time. Further, the GI50 with MDA-MB-435, in the experiment with IGROV-1, in the experiment with SN12C, with MDA-MB-231, in the experiment with OVCAR-5 and with SR was > 100 µM (inactive) throughout. Besides, the GI50 in the experiment on HOP-62, in the experiment with MDA-N, in the experiment on BT-549 and in the experiment with NCI/ADR-RES was > 100 µM (inactive) each time.
